Test results as given in US20260132127A1, “NOVEL SPIRO COMPOUND” (MITSUBISHI TANABE PHARMA CORPORATION, priority 2021, published 2026).

Molecular target: T1, human TRH-DE (Homo sapiens, UniProt Q9UKU6)
T1 construct: expressed in transfected cells; host or cells: Expi 293 cells (transient expression), membrane fraction
T1 sequence (Q9UKU6 1-1069): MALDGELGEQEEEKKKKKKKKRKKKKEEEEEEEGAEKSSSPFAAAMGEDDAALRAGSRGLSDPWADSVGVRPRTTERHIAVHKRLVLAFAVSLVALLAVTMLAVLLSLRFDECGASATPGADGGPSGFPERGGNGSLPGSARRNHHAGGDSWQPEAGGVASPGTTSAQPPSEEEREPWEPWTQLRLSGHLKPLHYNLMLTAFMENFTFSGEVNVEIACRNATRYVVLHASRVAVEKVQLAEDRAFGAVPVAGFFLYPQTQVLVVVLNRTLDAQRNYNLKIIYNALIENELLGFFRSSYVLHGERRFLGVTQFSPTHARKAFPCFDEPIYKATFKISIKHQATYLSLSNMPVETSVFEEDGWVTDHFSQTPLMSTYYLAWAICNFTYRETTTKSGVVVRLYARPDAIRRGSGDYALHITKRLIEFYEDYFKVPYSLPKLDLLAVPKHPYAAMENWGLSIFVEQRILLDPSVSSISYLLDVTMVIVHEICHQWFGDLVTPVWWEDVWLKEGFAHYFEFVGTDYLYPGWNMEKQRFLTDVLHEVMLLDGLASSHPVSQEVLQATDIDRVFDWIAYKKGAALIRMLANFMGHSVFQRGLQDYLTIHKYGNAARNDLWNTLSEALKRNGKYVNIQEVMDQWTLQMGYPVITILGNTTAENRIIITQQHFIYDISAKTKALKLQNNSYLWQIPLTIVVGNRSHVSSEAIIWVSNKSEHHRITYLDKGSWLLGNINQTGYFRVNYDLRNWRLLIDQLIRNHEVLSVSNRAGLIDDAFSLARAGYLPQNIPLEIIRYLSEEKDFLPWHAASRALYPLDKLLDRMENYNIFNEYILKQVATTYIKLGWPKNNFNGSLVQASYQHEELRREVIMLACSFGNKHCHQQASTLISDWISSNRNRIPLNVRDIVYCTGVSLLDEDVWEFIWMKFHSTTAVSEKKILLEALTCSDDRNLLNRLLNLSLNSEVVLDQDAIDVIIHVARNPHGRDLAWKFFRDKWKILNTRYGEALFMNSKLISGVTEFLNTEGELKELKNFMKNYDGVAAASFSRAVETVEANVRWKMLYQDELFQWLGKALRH
Assay: TRH-DE inhibition test (RapidFire MS measurement of product Cyclo (His-Pro))
Format: biochemical
Settings: membrane fraction of Expi 293 cells expressing human TRH-DE; 10 μM TRH substrate; room temperature, 2 hours; 16-point concentration test
Protocol: The compounds described in “1. […] The enzyme inhibitory activity of each of the compounds was evaluated by measuring the amount of the product Cyclo (His-Pro) of the enzyme reaction using a RapidFire RF 365 HTMS system (manufactured by Agilent Technologies, Inc.) connected to a triple quadrupole mass spectrometer (API 4000, manufactured by SCIEX). A membrane fraction prepared from Expi 293 cells transiently expressing human TRH-DE was used as an enzyme. The membrane fraction was suspended in 4 μg/ml of a reaction buffer (50 mM sodium phosphate (pH 7.4), 25 mM NaCl, 0.01% Triton […], and 200 μM bacitracin) and mixed with the test compound at each concentration. 10 μM […]), which was a substrate, was added, and the mixture was reacted at room temperature for 2 hours. The reaction was stopped in the same amount of a solution of acetonitrile:methanol (1:1) containing 1 μM of the stable isotope Cyclo ([…]) as an internal standard, and the supernatant was collected after centrifugation. In the RapidFire RF 365 HTMS system, a portion of the supernatant was aspirated, loaded onto a Graphic Carbon column (manufactured by Agilent Technologies, Inc.) with a buffer A (water, 0.09% formic acid, 0.01% trifluoroacetic acid) and washed with ultrapure water. Next, washing was performed with acetonitrile. The contents in the column were eluted with a buffer B (80% acetonitrile, 0.09% formic acid, 0.01% trifluoroacetic acid) and injected into a mass spectrometer for analysis. […] The ESI voltage was set to 5,500 V and the temperature was set to 650° C. For the calculation of the inhibition rate, a Ratio value corrected by dividing the product amount by the internal standard amount was used. The inhibition rate (%) was calculated by % Inhibition={1-(Ratio value of sample-Ratio value of blank)/(Ratio value of control-Ratio value of blank)}×100. The IC50 value was calculated from the concentration reactivity test at 16 points.

IC50	SMILES
154 nM	CC1c2cc(F)cnc2C(=O)N1C1CC2(C1)CN(S(=O)(=O)c1ccccc1F)C2 (racemic) [Example 292]
121 nM	Cc1cnc2c(c1)C(C)N(C1CC3(C1)CN(S(=O)(=O)c1ccccc1F)C3)C2=O (racemic) [Example 293]
118 nM	COc1ccc2c(n1)C(=O)N(C1CC3(C1)CN(S(=O)(=O)c1ccccc1F)C3)C2C (racemic) [Example 294]
355 nM	CC1c2cnccc2C(=O)N1C1CC2(C1)CN(S(=O)(=O)c1ccccc1F)C2 (racemic) [Example 295]
33 nM	C[C@@H]1CC[C@H](C)N(C2CC3(C2)CN(S(=O)(=O)c2ccccc2F)C3)C(=O)C1 (racemic) [Example 436, (4R*,7S*)-1-[2-(2-fluorophenyl)sulfonyl-2-azaspiro[3.3]heptan-6-yl]-4,7-dimethylazepan-2-one]
292 nM	C[C@@H]1CC[C@@H](C)N(C2CC3(C2)CN(S(=O)(=O)c2ccccc2F)C3)C(=O)C1 (racemic) [Example 437, (4R*,7R*)-1-[2-(2-fluorophenyl)sulfonyl-2-azaspiro[3.3]heptan-6-yl]-4,7-dimethylazepan-2-one]
126 nM	CC1CCC(=O)N(C2CC3(C2)CN(S(=O)(=O)c2ccccc2F)C3)C(C)C1 (racemic) [Example 438]
124 nM	CC1CCC(=O)N(C2CC3(C2)CN(S(=O)(=O)c2ccccc2F)C3)C(C)C1 (racemic) [Example 439]
199 nM	CC1CCCC(=O)N1C1CC2(C1)CN(S(=O)(=O)c1ccccc1F)C2 (racemic) [Example 440, 1-[2-(2-fluorophenyl)sulfonyl-2-azaspiro[3.3]heptan-6-yl]-6-methylpiperidin-2-one]
2 nM	C[C@@H]1COc2nc(N3C[C@H]4C[C@H]4C3)ncc2C(=O)N1C1CC2(C1)CN(S(=O)(=O)c1ccccc1F)C2 (relative stereo) [Example 168, (7R)-2-[(1S*,5R*)-3-azabicyclo[3.1.0]hexan-3-yl]-6-[2-(2-fluorophenyl)sulfonyl]-2-azaspiro[3.3]heptan-6-yl]-7-methyl-7,8-dihydropyrimido[5,4-f][1,4]oxazepin-5-one]
5 nM	CC1COc2cccnc2C(=O)N1C1CC2(C1)CN(S(=O)(=O)c1ccccc1F)C2 (single isomer, unassigned) [Example 348]
507 nM	CC1COc2cccnc2C(=O)N1C1CC2(C1)CN(S(=O)(=O)c1ccccc1F)C2 (single isomer, unassigned) [Example 349]
11 nM	CC1CCc2nc(C(F)(F)F)sc2C(=O)N1C1CC2(C1)CN(S(=O)(=O)c1ccccc1F)C2 (single isomer, unassigned) [Example 352]
66 nM	CC1CCc2nc(C(F)(F)F)sc2C(=O)N1C1CC2(C1)CN(S(=O)(=O)c1ccccc1F)C2 (single isomer, unassigned) [Example 353]
2 nM	CC1CCc2nc(C3CC3)sc2C(=O)N1C1CC2(C1)CN(S(=O)(=O)c1ccccc1F)C2 (single isomer, unassigned) [Example 354]
17 nM	CC1CCc2nc(C3CC3)sc2C(=O)N1C1CC2(C1)CN(S(=O)(=O)c1ccccc1F)C2 (single isomer, unassigned) [Example 355]
44 nM	CC1Cc2nc(C(F)(F)F)ccc2C(=O)N1C1CC2(C1)CN(S(=O)(=O)c1ccccc1F)C2 (single isomer, unassigned) [Example 356]
89 nM	CC1c2ccccc2C(=O)N1C1CC2(C1)CN(S(=O)(=O)c1ccccc1F)C2 (single isomer, unassigned) [Example 358]
454 nM	CC1c2ccccc2C(=O)N1C1CC2(C1)CN(S(=O)(=O)c1ccccc1F)C2 (single isomer, unassigned) [Example 359]
86 nM	CC1c2cccnc2C(=O)N1C1CC2(C1)CN(S(=O)(=O)c1ccccc1F)C2 (single isomer, unassigned) [Example 360]
182 nM	CC1c2cc(F)cnc2C(=O)N1C1CC2(C1)CN(S(=O)(=O)c1ccccc1F)C2 (single isomer, unassigned) [Example 362]

IC50	SMILES
160 nM	CC1c2cc(C(F)(F)F)cnc2C(=O)N1C1CC2(C1)CN(S(=O)(=O)c1ccccc1F)C2 (single isomer, unassigned) [Example 365]
10 nM	C[C@@H]1COc2nc(OC3CC(C#N)C3)ncc2C(=O)N1C1CC2(C1)CN(S(=O)(=O)c1ccccc1F)C2 (stereo in doubt) [Example 379]
13 nM	C[C@@H]1COc2nc(Cl)ncc2C(=O)N1C1CC2(C1)CN(S(=O)(=O)c1ccccc1F)C2 [Example 6]
13 nM	C[C@@H]1COc2nccnc2C(=O)N1C1CC2(C1)CN(S(=O)(=O)c1ccccc1F)C2 [Example 8, (7R)-8-[2-(2-fluorophenyl)sulfonyl-2-azaspiro[3.3]heptan-6-yl]-7-methyl-6,7-dihydropyrazino[2,3-f][1,4]oxazepin-9-one]
4 nM	C[C@@H]1COc2cc(F)cnc2C(=O)N1C1CC2(C1)CN(S(=O)(=O)c1ccccc1F)C2 [Example 11]
9 nM	C[C@@H]1COc2ccc(Cl)nc2C(=O)N1C1CC2(C1)CN(S(=O)(=O)c1ccccc1F)C2 [Example 12]
2 nM	C[C@@H]1COc2cc(Cl)cnc2C(=O)N1C1CC2(C1)CN(S(=O)(=O)c1ccccc1F)C2 [Example 13]
8 nM	C[C@@H]1COc2ccc(C(F)(F)F)nc2C(=O)N1C1CC2(C1)CN(S(=O)(=O)c1ccccc1F)C2 [Example 17]
1 nM	C[C@@H]1COc2cc(Br)cnc2C(=O)N1C1CC2(C1)CN(S(=O)(=O)c1ccccc1F)C2 [Example 18]
2 nM	C[C@@H]1COc2ccncc2C(=O)N1C1CC2(C1)CN(S(=O)(=O)c1ccccc1F)C2 [Example 19]
2 nM	C[C@@H]1COc2cc(Cl)ncc2C(=O)N1C1CC2(C1)CN(S(=O)(=O)c1ccccc1F)C2 [Example 22]
3 nM	C[C@@H]1COc2cc(C(F)(F)F)ncc2C(=O)N1C1CC2(C1)CN(S(=O)(=O)c1ccccc1F)C2 [Example 24]
14 nM	C[C@@H]1COc2ncc(F)cc2C(=O)N1C1CC2(C1)CN(S(=O)(=O)c1ccccc1F)C2 [Example 27]
3 nM	C[C@@H]1COc2ncc(Cl)cc2C(=O)N1C1CC2(C1)CN(S(=O)(=O)c1ccccc1F)C2 [Example 32]
15 nM	C[C@@H]1COc2ncc(C(F)(F)F)cc2C(=O)N1C1CC2(C1)CN(S(=O)(=O)c1ccccc1F)C2 [Example 33]
8 nM	C[C@@H]1COc2nc(Cl)ccc2C(=O)N1C1CC2(C1)CN(S(=O)(=O)c1ccccc1F)C2 [Example 34]
7 nM	C[C@@H]1COc2nc(OC(F)(F)F)ccc2C(=O)N1C1CC2(C1)CN(S(=O)(=O)c1ccccc1F)C2 [Example 35]
21 nM	C[C@@H]1COc2nc(Cl)c(F)cc2C(=O)N1C1CC2(C1)CN(S(=O)(=O)c1ccccc1F)C2 [Example 36]
6 nM	Cc1nc2c(cc1Br)C(=O)N(C1CC3(C1)CN(S(=O)(=O)c1ccccc1F)C3)[C@H](C)CO2 [Example 37]
12 nM	C[C@@H]1COc2ncccc2C(=O)N1C1CC2(C1)CN(S(=O)(=O)c1ccccc1F)C2 [Example 38]
20 nM	CC[C@@H]1COc2ncccc2C(=O)N1C1CC2(C1)CN(S(=O)(=O)c1ccccc1F)C2 [Example 39]
